Test results published in ChEMBL document CHEMBL3046455, “Synthesis and pharmacological evaluation of some novel 4-isopropyl thiazole-based sulfonyl derivatives as potent antimicrobial and antitubercular agents” (Med Chem Res, 2013).
In brackets after ≈: the same amount, converted by molar mass.

Columns and labels:
[1] = tested on: Mycobacterium tuberculosis; assay: Antitubercular activity against Mycobacterium tuberculosis H37Rv after 21 days by broth microdilution method; type: functional; details: 504 h
Saccharomyces cerevisiae = assay: Antifungal activity against Saccharomyces cerevisiae ATCC 9763 after 24 hr by broth microdilution method; type: functional; details: ATCC 9763, 24 h
Escherichia coli = assay: Antibacterial activity against Escherichia coli ATCC 10536 after 24 hr by broth microdilution method; type: functional; details: ATCC 10536, 24 h
Candida tropicalis = assay: Antifungal activity against Candida tropicalis ATCC 1369 after 24 hr by broth microdilution method; type: functional; details: ATCC 1369, 24 h
Klebsiella pneumoniae = assay: Antibacterial activity against Klebsiella pneumoniae ATCC 10031 after 24 hr by broth microdilution method; type: functional; details: ATCC 10031, 24 h
Staphylococcus aureus = assay: Antibacterial activity against Staphylococcus aureus ATCC 11632 after 24 hr by broth microdilution method; type: functional; details: ATCC 11632, 24 h
Bacillus subtilis = assay: Antibacterial activity against Bacillus subtilis ATCC 60511 after 24 hr by broth microdilution method; type: functional; details: ATCC 60511, 24 h
Enterococcus faecalis = assay: Antibacterial activity against Enterococcus faecalis ATCC 14506 after 24 hr by broth microdilution method; type: functional; details: ATCC 14506, 24 h
Aspergillus niger = assay: Antifungal activity against Aspergillus niger ATCC 6275 after 24 hr by broth microdilution method; type: functional; details: ATCC 6275, 24 h
Pseudomonas aeruginosa = assay: Antibacterial activity against Pseudomonas aeruginosa ATCC 10145 after 24 hr by broth microdilution method; type: functional; details: ATCC 10145, 24 h
A549 = assay: Cytotoxicity against Homo sapiens (human) A549 cells at […] by MTT assay relative to control; type: cell-based

Row | SMILES | MIC [1] [µg/mL] | MIC (Saccharomyces cerevisiae) [µg/mL] | MIC (Escherichia coli) [µg/mL] | MIC (Candida tropicalis) [µg/mL] | MIC (Klebsiella pneumoniae) [µg/mL] | MIC (Staphylococcus aureus) [µg/mL] | MIC (Bacillus subtilis) [µg/mL] | MIC (Enterococcus faecalis) [µg/mL] | MIC (Aspergillus niger) [µg/mL] | MIC (Pseudomonas aeruginosa) [µg/mL] | Activity (A549)
1 | CC(C)c1csc(-c2nnc(S(=O)(=O)Cc3cc(Cl)ccc3F)n2-c2ccccc2)n1 | 4 (≈ 8.39 µM) | 16 (≈ 33.5 µM) | 4 (≈ 8.39 µM) | 16 (≈ 33.5 µM) | 8 (≈ 16.8 µM) | 16 (≈ 33.5 µM) | 31.2 (≈ 65.5 µM) | 31.2 (≈ 65.5 µM) | 31.2 (≈ 65.5 µM) | 8 (≈ 16.8 µM) | 
2 | CC(C)c1csc(-c2nnc(S(=O)(=O)Cc3ccc(OC(F)(F)F)cc3)n2-c2ccccc2)n1 | 1 (≈ 1.97 µM) | 16 (≈ 31.5 µM) | 2 (≈ 3.93 µM) | 16 (≈ 31.5 µM) | 4 (≈ 7.87 µM) | 31.2 (≈ 61.4 µM) | 8 (≈ 15.7 µM) | 8 (≈ 15.7 µM) | 31.2 (≈ 61.4 µM) | 8 (≈ 15.7 µM) | 50%
3 | CC(C)c1csc(-c2nnc(S(=O)(=O)Cc3ccc(Br)cc3F)n2/N=C/c2c(F)cccc2F)n1 | 8 (≈ 13.7 µM) | 16 (≈ 27.4 µM) | 16 (≈ 27.4 µM) | 16 (≈ 27.4 µM) | 31.2 (≈ 53.5 µM) | 31.2 (≈ 53.5 µM) | 16 (≈ 27.4 µM) | 31.2 (≈ 53.5 µM) | 16 (≈ 27.4 µM) | 8 (≈ 13.7 µM) | 
4 | CC(C)c1csc(-c2nnc(S(=O)(=O)Cc3ccc(C(F)(F)F)cc3)n2/N=C/c2c(F)cccc2F)n1 | 0.5 (≈ 0.9 µM) | 16 (≈ 28.8 µM) | 4 (≈ 7.2 µM) | 4 (≈ 7.2 µM) | 16 (≈ 28.8 µM) | 8 (≈ 14.4 µM) | 8 (≈ 14.4 µM) | 16 (≈ 28.8 µM) | 8 (≈ 14.4 µM) | 8 (≈ 14.4 µM) | 50%
5 | CC(C)c1csc(-c2nnc(S(=O)(=O)Cc3ccc(Cl)cc3)n2/N=C/c2c(F)cccc2F)n1 | 8 (≈ 15.3 µM) | 62.5 (≈ 120 µM) | 8 (≈ 15.3 µM) | 16 (≈ 30.7 µM) | 31.2 (≈ 59.9 µM) | 31.2 (≈ 59.9 µM) | 8 (≈ 15.3 µM) | 31.2 (≈ 59.9 µM) | 31.2 (≈ 59.9 µM) | 62.5 (≈ 120 µM) | 
6 | CC(C)c1csc(-c2nnc(S(=O)(=O)Cc3ccc(Br)cc3)n2/N=C/c2c(F)cccc2F)n1 | 8 (≈ 14.1 µM) | 62.5 (≈ 110 µM) | 8 (≈ 14.1 µM) | 8 (≈ 14.1 µM) | 8 (≈ 14.1 µM) | 31.2 (≈ 55.2 µM) | 16 (≈ 28.2 µM) | 16 (≈ 28.2 µM) | 8 (≈ 14.1 µM) | 8 (≈ 14.1 µM) | 
7 | CC(C)c1csc(-c2nnc(S(=O)(=O)Cc3ccc(Br)cc3F)n2/N=C/c2ccc(F)cc2)n1 | 16 (≈ 28.2 µM) | 31.2 (≈ 55.2 µM) | 8 (≈ 14.1 µM) | 31.2 (≈ 55.2 µM) | 8 (≈ 14.1 µM) | 16 (≈ 28.2 µM) | 31.2 (≈ 55.2 µM) | 31.2 (≈ 55.2 µM) | 31.2 (≈ 55.2 µM) | 62.5 (≈ 110 µM) | 
8 | CC(C)c1csc(-c2nnc(S(=O)(=O)Cc3ccc(C(F)(F)F)cc3)n2/N=C/c2ccc(F)cc2)n1 | 2 (≈ 3.72 µM) | 4 (≈ 7.44 µM) | 8 (≈ 14.9 µM) | 16 (≈ 29.8 µM) | 4 (≈ 7.44 µM) | 4 (≈ 7.44 µM) | 8 (≈ 14.9 µM) | 8 (≈ 14.9 µM) | 4 (≈ 7.44 µM) | 8 (≈ 14.9 µM) | Toxic
9 | CC(C)c1csc(-c2nnc(S(=O)(=O)Cc3ccc(Cl)cc3)n2/N=C/c2ccc(F)cc2)n1 | 8 (≈ 15.9 µM) | 31.2 (≈ 62 µM) | 16 (≈ 31.7 µM) | 31.2 (≈ 62 µM) | 31.2 (≈ 62 µM) | 8 (≈ 15.9 µM) | 4 (≈ 7.94 µM) | 4 (≈ 7.94 µM) | 31.2 (≈ 62 µM) | 16 (≈ 31.7 µM) | 
10 | O=C(O)c1cn(C2CC2)c2cc(N3CCNCC3)c(F)cc2c1=O [CIPROFLOXACIN] |  |  | ≤ 1 |  | ≤ 1 | ≤ 5 | ≤ 1 | ≤ 5 |  | ≤ 5 | 
11 | OC(Cn1cncn1)(Cn1cncn1)c1ccc(F)cc1F [FLUCONAZOLE] |  | ≤ 1 |  | ≤ 1 |  |  |  |  | ≤ 1 |  | 
12 | NNC(=O)c1ccncc1 [ISONIAZID] | 0.25 (≈ 1.82 µM) |  |  |  |  |  |  |  |  |  | 
13 | CCn1cc(C(=O)O)c(=O)c2cc(F)c(N3CCNCC3)cc21 [NORFLOXACIN] |  |  | ≤ 1 |  | ≤ 1 | ≤ 5 | ≤ 1 | ≤ 5 |  | ≤ 5 | 
